Reference: patent publication US20230219965A1 (KSQ Therapeutics, Inc., priority 2020, published 2023)

biological target: USP1/UAF1 enzyme (Homo sapiens, UniProt O94782); assay: USP1/UAF1 deubiquitination assay (ubiquitin-rhodamine 110 substrate); format: biochemical; settings: read-out: USP1 IC50 (Ub-Rho)
Description: Certain Compounds of the Disclosure were assessed for USP1/UAF1 activity in a Ubiquitin Rhodamine assay modified from those described previously.
Deubiquitinase activity was measured using ubiquitin-rhodamine 110 as a substrate. Cleavage of the amide bond between rhodamine and the c-terminal glycine of ubiquitin yields an increase in fluorescence signal. The assay was conducted in 20 μl total volume of assay buffer (50 mM Tris-HCl, pH 7.8, 0.5 mM EDTA, 0.01% Bovine Serum Albumin, 1 mM DTT, 0.01% Tween-20), and 0.05 nM USP1/UAF1 enzyme. Reaction was initiated by addition of 150 nM Ubiquitin-rhodamine (Boston Biochem) substrate.
Compounds of the Disclosure, dissolved in DMSO were tested in dose response format, beginning at […].
The example compounds listed below were added to enzyme/assay buffer mix and incubated 10 min. Substrate mix was added, and reaction mix was read in kinetic mode for 30 min at Ex480/Em540 and IC50 response curves were plotted.
Data for all assay formats was calculated as percent inhibition compared with control wells. Percent inhibition was calculated using the following equation: % inhibition=100×[1−(X−min)/(max−min)], where X is the raw data readout, min is the average of the no enzyme control wells (n=32), max is the average of the DMSO control well (n=32). IC50 values were calculated using the standard four parameter curve fitting algorithm in either Prism GraphPad (La Jolla, Calif.) software, or Collaborative Drug Discovery (Burlingame, Calif.) CDD Vault. See Chem. Biol. 20(1): 55-62 (Jan. 24, 2013); Bioorg. Med. Chem. Lett. 23(20): 5660-5666 (Oct. 15, 2013).

USP1/UAF1 enzyme, sequence (O94782 whole entry): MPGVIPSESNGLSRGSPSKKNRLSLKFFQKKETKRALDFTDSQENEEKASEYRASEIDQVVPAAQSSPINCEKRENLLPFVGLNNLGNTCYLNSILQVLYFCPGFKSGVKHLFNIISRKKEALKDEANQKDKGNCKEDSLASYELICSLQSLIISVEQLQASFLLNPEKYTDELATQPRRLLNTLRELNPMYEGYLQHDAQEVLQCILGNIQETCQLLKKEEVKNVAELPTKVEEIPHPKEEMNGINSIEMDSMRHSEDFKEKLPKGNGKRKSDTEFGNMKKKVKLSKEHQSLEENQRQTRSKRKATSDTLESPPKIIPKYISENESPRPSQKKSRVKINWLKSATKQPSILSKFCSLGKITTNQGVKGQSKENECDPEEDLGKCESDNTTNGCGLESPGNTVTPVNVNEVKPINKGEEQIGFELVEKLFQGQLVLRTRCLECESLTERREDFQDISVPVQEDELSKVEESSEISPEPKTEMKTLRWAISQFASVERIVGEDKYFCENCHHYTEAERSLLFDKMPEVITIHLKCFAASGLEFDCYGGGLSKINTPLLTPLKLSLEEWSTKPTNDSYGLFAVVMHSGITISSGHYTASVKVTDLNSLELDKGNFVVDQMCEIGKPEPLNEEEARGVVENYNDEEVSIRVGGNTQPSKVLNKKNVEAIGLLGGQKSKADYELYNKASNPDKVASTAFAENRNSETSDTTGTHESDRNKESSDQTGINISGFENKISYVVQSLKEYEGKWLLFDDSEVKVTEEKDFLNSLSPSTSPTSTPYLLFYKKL
USP1/UAF1 enzyme, sequence (Q8TAF3 whole entry partner): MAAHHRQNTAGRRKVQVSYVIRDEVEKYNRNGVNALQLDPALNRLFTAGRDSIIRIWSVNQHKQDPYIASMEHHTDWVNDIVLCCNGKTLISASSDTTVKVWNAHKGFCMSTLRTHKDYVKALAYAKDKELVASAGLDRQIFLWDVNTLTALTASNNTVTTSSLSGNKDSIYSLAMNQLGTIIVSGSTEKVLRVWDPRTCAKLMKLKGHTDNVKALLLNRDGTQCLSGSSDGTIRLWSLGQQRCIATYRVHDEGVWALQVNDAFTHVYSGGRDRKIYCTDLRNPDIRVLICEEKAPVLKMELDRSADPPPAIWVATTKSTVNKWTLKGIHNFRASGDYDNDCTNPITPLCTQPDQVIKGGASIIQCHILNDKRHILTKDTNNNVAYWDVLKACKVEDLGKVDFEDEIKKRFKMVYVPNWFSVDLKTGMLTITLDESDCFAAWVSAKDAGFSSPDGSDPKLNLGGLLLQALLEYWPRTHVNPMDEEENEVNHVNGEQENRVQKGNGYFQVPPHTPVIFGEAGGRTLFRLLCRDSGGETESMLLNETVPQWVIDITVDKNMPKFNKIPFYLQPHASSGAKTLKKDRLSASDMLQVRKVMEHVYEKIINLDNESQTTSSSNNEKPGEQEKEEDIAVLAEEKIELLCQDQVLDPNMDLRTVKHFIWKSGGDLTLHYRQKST

Row | SMILES | IC50 [µM]
1 | COc1ncnc(C2CC2)c1-c1cc2n(n1)CC(C)(C)C(=O)N2Cc1ccc(-c2nc(C(F)(F)F)cn2C)cc1 [Example 76, 2-(4-cyclopropyl-6-methoxypyrimidin-5-yl)-6,6-dimethyl-4-(4-(1-methyl-4-(trifluoromethyl)-1H-imidazol-2-yl)benzyl)-6,7-dihydropyrazolo[1,5-α]pyrimidin-5(4H)-one] | 0.1 to 0.5
2 | CCn1cc(C(F)(F)F)nc1-c1ccc(CN2C(=O)CCn3nc(-c4c(OC(F)F)cnn4C(C)C)cc32)cc1F [Example 329, 2-(4-(difluoromethoxy)-1-isopropyl-1H-pyrazol-5-yl)-4-(4-(1-ethyl-4-(trifluoromethyl)-1H-imidazol-2-yl)-3-fluorobenzyl)-6,7-dihydropyrazolo[1,5-α]pyrimidin-5(4H)-one] | 0.1 to 0.5
3 | CCn1cc(C(F)(F)F)nc1-c1cnc(CN2C(=O)CCn3nc(-c4c(Cl)cnn4C(C)C)cc32)nc1 [Example 354, 2-(4-chloro-1-isopropyl-1H-pyrazol-5-yl)-4-((5-(1-ethyl-4-(trifluoromethyl)-1H-imidazol-2-yl)pyrimidin-2-yl)methyl)-6,7-dihydropyrazolo[1,5-α]pyrimidin-5(4H)-one] | > 0.5
4 | CCn1cc(C#N)nc1-c1ccc([C@@H](C)N2C(=O)CCn3nc(-c4c(OC)ncnc4C4CC4)nc32)cc1 [Example 199] | 0.1 to 0.5
5 | CC(C)n1ncc(Cl)c1-c1cc2n(n1)CCC(=O)N2Cc1ccc(-c2nc(C(F)(F)F)ccc2F)c(Cl)c1 [Example 316] | 0.1 to 0.5
6 | CCn1cc(C(F)(F)F)nc1-c1ccc(CC2NCCn3nc(-c4c(OC)ncnc4C4CC4)cc32)cc1 (stereo not drawn) [Example 361, 2-(4-cyclopropyl-6-methoxypyrimidin-5-yl)-4-(4-(1-ethyl-4-(trifluoromethyl)-1H-imidazol-2-yl)benzyl)-4,5,6,7-tetrahydropyrazolo[1,5-a]pyrazine] | 0.1 to 0.5
7 | CC(C)n1cc(F)nc1-c1ccc(CN2C(=O)CCn3nc(-c4c(Cl)cnn4C(C)C)cc32)cc1Cl [Example 297] | 0.1 to 0.5
8 | CCn1cc(C(F)(F)F)nc1-c1ccc(CN2C(=O)CCn3nc(-c4c(C5CC5)cnn4C(C)C)cc32)cc1 [Example 161] | 0.1 to 0.5
9 | CCn1cc(C(F)(F)F)nc1-c1ccc(CN2C(=O)CCn3nc(-c4c(OC)cnn4C(C)C)nc32)cc1 [Example 45] | > 0.5
10 | COc1nccnc1-c1ccc(CN2C(=O)CCn3nc(-c4c(Cl)cnn4C(C)C)cc32)cc1Cl [Example 274] | 0.1 to 0.5
11 | CNCc1cc(C(F)(F)F)nn1-c1ccc(CN2C(=O)CCn3nc(-c4c(Cl)cnn4C(C)C)cc32)cc1 [Example 224, 2-(4-chloro-1-isopropyl-1H-pyrazol-5-yl)-4-(4-(5-((methylamino)methyl)-3-(trifluoromethyl)-1H-pyrazol-1-yl)benzyl)-6,7-dihydropyrazolo[1,5-α]pyrimidin-5(4H)-one] | 0.1 to 0.5
12 | CCn1cc(C(F)(F)F)nc1-c1ccc(CC2NCCn3nc(-c4c(Cl)cnn4C(C)C)cc32)cc1 (stereo not drawn) [Example 359, 2-(4-chloro-1-isopropyl-1H-pyrazol-5-yl)-4-(4-(1-ethyl-4-(trifluoromethyl)-1H-imidazol-2-yl)benzyl)-4,5,6,7-tetrahydropyrazolo[1,5-α]pyrazine] | 0.1 to 0.5
13 | Cc1cn2ccnc(-c3ccc(CN4C(=O)CCn5nc(-c6c(Cl)cnn6C(C)C)cc54)cc3Cl)c2n1 [Example 275] | 0.1 to 0.5
14 | Cc1cc(C(F)(F)F)n(-c2ccc(CN3C(=O)CCn4nc(-c5c(Cl)cnn5C(C)C)cc43)cc2F)n1 [Example 92] | > 0.5
15 | CCn1cc(C(F)(F)F)nc1-c1ccc(CN2C(=O)CCn3nc(-c4c(OC)ncnc4C4CC4)cc32)nc1 [Example 137] | 0.1 to 0.5
16 | [2H]C([2H])([2H])C([2H])(n1cc(C(F)(F)F)nc1-c1ccc(CN2C(=O)CCn3nc(-c4c(OC(F)F)ncnc4C4CC4)nc32)cc1)C([2H])([2H])[2H] [Example 374, 2-(4-cyclopropyl-6-(difluoromethoxy)pyrimidin-5-yl)-4-(4-(1-(propan-2-yl-d7)-4-(trifluoromethyl)-1H-imidazol-2-yl)benzyl)-6,7-dihydro-[1,2,4]triazolo[1,5-a]pyrimidin-5(4H)-one] | < 0.1
17 | CCn1cc(C(F)(F)F)nc1-c1ccc(CN2C(=O)CCn3nc(-c4c(C(C)(C)C)cnn4C)cc32)cc1 [Example 157] | 0.1 to 0.5
18 | CCn1cc(C(F)(F)F)nc1-c1ccc(CN2C(=O)CCn3nc(-c4c(OC)ncnc4C4CC4)cc32)cc1OC [Example 136] | 0.1 to 0.5
19 | COc1ncnc(C2CC2)c1-c1cc2n(n1)CCCC2Nc1ccc(-c2nc(C(F)(F)F)cn2CCF)cc1 (stereo not drawn) [Example 387, 2-(4-cyclopropyl-6-methoxypyrimidin-5-yl)-N-(4-(1-(2-fluoroethyl)-4-(trifluoromethyl)-1H-imidazol-2-yl)phenyl)-4,5,6,7-tetrahydropyrazolo[1,5-a]pyridin-4-amine] | < 0.1
20 | CCn1cc(C(F)(F)F)nc1-c1ccc(Cn2c(=O)c(C)cn3nc(-c4c(OC)ncnc4C4CC4)nc23)cc1 [Example 391, 2-(4-cyclopropyl-6-methoxypyrimidin-5-yl)-4-(4-(1-ethyl-4-(trifluoromethyl)-1H-imidazol-2-yl)benzyl)-6-methyl-[1,2,4]triazolo[1,5-α]pyrimidin-5(4H)-one] | < 0.1
21 | CCn1ncc(Cl)c1-c1cc2n(n1)CCC(=O)N2Cc1ccc(-c2nc(C(F)(F)F)cn2C)c(F)c1 [Example 17, 2-(4-chloro-1-ethyl-1H-pyrazol-5-yl)-4-(3-fluoro-4-(1-methyl-4-(trifluoromethyl)-1H-imidazol-2-yl)benzyl)-6,7-dihydropyrazolo[1,5-a]pyrimidin-5(4H)-one] | < 0.1
22 | CC(c1ccc(F)cc1)N1C(=O)CCn2nc(-c3c(Cl)cnn3C(C)C)cc21 (stereo not drawn) [Example 110] | 0.1 to 0.5
23 | CCn1cc(C(F)(F)F)nc1-c1ccc(N(C)C2CCCc3nn(-c4ccccc4C(C)C)cc32)cc1F (stereo not drawn) [Example 356, N-(4-(1-ethyl-4-(trifluoromethyl)-1H-imidazol-2-yl)-3-fluorophenyl)-2-(2-isopropylphenyl)-N-methyl-4,5,6,7-tetrahydro-2H-indazol-4-amine] | 0.1 to 0.5
24 | CC(C)n1cc(C(F)(F)F)nc1-c1ccc(CN2C(=O)CCn3nc(-c4c(OC(F)F)ncnc4C4CC4)nc32)cc1 [Example 369, 2-(4-cyclopropyl-6-(difluoromethoxy)pyrimidin-5-yl)-4-(4-(1-isopropyl-4-(trifluoromethyl)-1H-imidazol-2-yl)benzyl)-6,7-dihydro-[1,2,4]triazolo[1,5-a]pyrimidin-5(4H)-one] | < 0.1
25 | COc1ccnnc1-c1ccc(CN2C(=O)CCn3nc(-c4c(Cl)cnn4C(C)C)cc32)cc1Cl [Example 293] | > 0.5
26 | CC(C)n1ncc(Cl)c1-c1cc2n(n1)CCC(=O)N2Cc1ccc(-c2ncccc2C(F)(F)F)c(Cl)c1 [Example 283] | > 0.5
27 | CCn1cc(C(F)(F)F)nc1-c1cc2c(cc1F)C(N1C(=O)CCn3nc(-c4c(Cl)cnn4C(C)C)cc31)CC2 (stereo not drawn) [Example 121] | 0.1 to 0.5
28 | COc1ncnc(C2CC2)c1-c1cc2n(n1)CCC(=O)N2Cc1ccc(-n2nc(C(F)(F)F)cc2OC)nc1 [Example 94] | 0.1 to 0.5
29 | COc1ccc(-c2ccc(CN3C(=O)CCn4nc(-c5c(Cl)cnn5C(C)C)cc43)cc2Cl)nn1 [Example 319] | > 0.5
30 | COc1cccnc1-c1ccc(CN2C(=O)CCn3nc(-c4c(OC)ncnc4C4CC4)nc32)cc1Cl [Example 306] | 0.1 to 0.5
